Assay results: patent US11608323B2 (SYNGENTA LIMITED, priority 2013, dated 2023)

What was measured:
Type in all cases: in vivo
ZEAMX [1] = assay: Post-emergence herbicidal activity, glasshouse pot test; conditions: Zea mays; application post-emergence; rate 1000 g/Ha; evaluated after 13 days
Summary of the method: (§1)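 Foliar application to 8-day-old plants using a 0.5% Tween 20 acetone/water carrier; phytotoxicity is scored visually from 0 to 5 after 13 days of growth at 24/16 °C day/night.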

ABUTH [2] = assay: as above; conditions: Abutilon theophrasti; application post-emergence; rate 1000 g/Ha; evaluated after 13 days
Summary of the method: as §1

ECHCG [3] = assay: as above; conditions: Echinochloa crus-galli; application post-emergence; rate 1000 g/Ha; evaluated after 13 days
Summary of the method: as §1

AMARE [4] = assay: as above; conditions: Amaranthus retroflexus; application post-emergence; rate 1000 g/Ha; evaluated after 13 days
Summary of the method: as §1

SETFA [5] = assay: as above; conditions: Setaria faberi; application post-emergence; rate 1000 g/Ha; evaluated after 13 days
Summary of the method: as §1

ALOMY [6] = assay: as above; conditions: Alopecurus myosuroides; application post-emergence; rate 1000 g/Ha; evaluated after 13 days
Summary of the method: as §1

ZEAMX [7] = assay: Pre-emergence herbicidal activity, glasshouse pot test; conditions: rate 1000 g/Ha, evaluated after 13 days, scale 0-5
Summary of the method: (§2)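 Seeds sown in standard soil in pots, sprayed one day later (pre-emergence) with aqueous solution from acetone/water (50:50) formulation with 0.5% Tween 20. Glasshouse at 24/16 °C day/night, 14 h light, 65% humidity, watered twice daily. Damage scored after 13 days, 0 (none) to 5 (total).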

ABUTH [8] = assay: as above; conditions: rate 1000 g/Ha, evaluated after 13 days, scale 0-5
Summary of the method: as §2

ECHCG [9] = assay: as above; conditions: rate 1000 g/Ha, evaluated after 13 days, scale 0-5
Summary of the method: as §2

AMARE [10] = assay: as above; conditions: rate 1000 g/Ha, evaluated after 13 days, scale 0-5
Summary of the method: as §2

SETFA [11] = assay: as above; conditions: rate 1000 g/Ha, evaluated after 13 days, scale 0-5
Summary of the method: as §2

ALOMY [12] = assay: as above; conditions: rate 1000 g/Ha, evaluated after 13 days, scale 0-5
Summary of the method: as §2

CON1CC(O)N(c2cc(C(F)(F)F)ccn2)C1=O (stereo not drawn) [Compound A36]
Post-emergence herbicidal activity ZEAMX (damage score 0-5) (ZEAMX [1]): 2 | Post-emergence herbicidal activity ABUTH (damage score 0-5) (ABUTH [2]): 1 | Post-emergence herbicidal activity ECHCG (damage score 0-5) (ECHCG [3]): 5 | Post-emergence herbicidal activity AMARE (damage score 0-5) (AMARE [4]): 5 | Post-emergence herbicidal activity SETFA (damage score 0-5) (SETFA [5]): 3 | Post-emergence herbicidal activity ALOMY (damage score 0-5) (ALOMY [6]): 4 | ZEAMX damage score, application pre-emergence (ZEAMX [7]): 0 | ABUTH damage score, application pre-emergence (ABUTH [8]): 1 | ECHCG damage score, application pre-emergence (ECHCG [9]): 4 | AMARE damage score, application pre-emergence (AMARE [10]): 5 | SETFA damage score, application pre-emergence (SETFA [11]): 2 | ALOMY damage score, application pre-emergence (ALOMY [12]): 2

CN1C(=O)N(c2cc(C(F)(F)F)ccn2)C(O)C1OCC(F)(F)F (stereo not drawn) [Compound A39]
Post-emergence herbicidal activity ZEAMX (damage score 0-5) (ZEAMX [1]): 1 | Post-emergence herbicidal activity ABUTH (damage score 0-5) (ABUTH [2]): 5 | Post-emergence herbicidal activity ECHCG (damage score 0-5) (ECHCG [3]): 5 | Post-emergence herbicidal activity AMARE (damage score 0-5) (AMARE [4]): 5 | Post-emergence herbicidal activity SETFA (damage score 0-5) (SETFA [5]): 5 | Post-emergence herbicidal activity ALOMY (damage score 0-5) (ALOMY [6]): 5 | ZEAMX damage score, application pre-emergence (ZEAMX [7]): 1 | ABUTH damage score, application pre-emergence (ABUTH [8]): 5 | ECHCG damage score, application pre-emergence (ECHCG [9]): 3 | AMARE damage score, application pre-emergence (AMARE [10]): 5 | SETFA damage score, application pre-emergence (SETFA [11]): 2 | ALOMY damage score, application pre-emergence (ALOMY [12]): 4

CC1NC(=O)N(c2cc(C(F)(F)F)ccn2)C1O (stereo not drawn) [Compound A40]
Post-emergence herbicidal activity ZEAMX (damage score 0-5) (ZEAMX [1]): 1 | Post-emergence herbicidal activity ABUTH (damage score 0-5) (ABUTH [2]): 5 | Post-emergence herbicidal activity ECHCG (damage score 0-5) (ECHCG [3]): 4 | Post-emergence herbicidal activity AMARE (damage score 0-5) (AMARE [4]): 5 | Post-emergence herbicidal activity SETFA (damage score 0-5) (SETFA [5]): 3 | Post-emergence herbicidal activity ALOMY (damage score 0-5) (ALOMY [6]): 4 | ZEAMX damage score, application pre-emergence (ZEAMX [7]): 2 | ABUTH damage score, application pre-emergence (ABUTH [8]): 4 | ECHCG damage score, application pre-emergence (ECHCG [9]): 3 | AMARE damage score, application pre-emergence (AMARE [10]): 5 | SETFA damage score, application pre-emergence (SETFA [11]): 2 | ALOMY damage score, application pre-emergence (ALOMY [12]): 2

C=CCOC1C(O)N(c2cc(C(F)(F)F)ccn2)C(=O)N1C (stereo not drawn) [Compound A41]
Post-emergence herbicidal activity ZEAMX (damage score 0-5) (ZEAMX [1]): 2 | Post-emergence herbicidal activity ABUTH (damage score 0-5) (ABUTH [2]): 5 | Post-emergence herbicidal activity ECHCG (damage score 0-5) (ECHCG [3]): 2 | Post-emergence herbicidal activity AMARE (damage score 0-5) (AMARE [4]): 5 | Post-emergence herbicidal activity SETFA (damage score 0-5) (SETFA [5]): 4 | Post-emergence herbicidal activity ALOMY (damage score 0-5) (ALOMY [6]): 4 | ZEAMX damage score, application pre-emergence (ZEAMX [7]): 1 | ABUTH damage score, application pre-emergence (ABUTH [8]): 5 | ECHCG damage score, application pre-emergence (ECHCG [9]): 2 | AMARE damage score, application pre-emergence (AMARE [10]): 5 | SETFA damage score, application pre-emergence (SETFA [11]): 2 | ALOMY damage score, application pre-emergence (ALOMY [12]): 1

COC(OC)C1C(O)N(c2cc(C(F)(F)F)ccn2)C(=O)N1C (stereo not drawn) [Compound A42]
Post-emergence herbicidal activity ZEAMX (damage score 0-5) (ZEAMX [1]): 1 | Post-emergence herbicidal activity ABUTH (damage score 0-5) (ABUTH [2]): 4 | Post-emergence herbicidal activity ECHCG (damage score 0-5) (ECHCG [3]): 0 | Post-emergence herbicidal activity AMARE (damage score 0-5) (AMARE [4]): 4 | Post-emergence herbicidal activity SETFA (damage score 0-5) (SETFA [5]): 2 | Post-emergence herbicidal activity ALOMY (damage score 0-5) (ALOMY [6]): 2 | ZEAMX damage score, application pre-emergence (ZEAMX [7]): 0 | ABUTH damage score, application pre-emergence (ABUTH [8]): 1 | ECHCG damage score, application pre-emergence (ECHCG [9]): 0 | AMARE damage score, application pre-emergence (AMARE [10]): 4 | SETFA damage score, application pre-emergence (SETFA [11]): 3 | ALOMY damage score, application pre-emergence (ALOMY [12]): 0

CN1C(=O)N(c2cc(C(F)(F)F)ccn2)C(O)C1CO (stereo not drawn) [Compound A43]
Post-emergence herbicidal activity ZEAMX (damage score 0-5) (ZEAMX [1]): 2 | Post-emergence herbicidal activity ABUTH (damage score 0-5) (ABUTH [2]): 5 | Post-emergence herbicidal activity ECHCG (damage score 0-5) (ECHCG [3]): 5 | Post-emergence herbicidal activity AMARE (damage score 0-5) (AMARE [4]): 1 | Post-emergence herbicidal activity SETFA (damage score 0-5) (SETFA [5]): 0 | Post-emergence herbicidal activity ALOMY (damage score 0-5) (ALOMY [6]): 1 | ZEAMX damage score, application pre-emergence (ZEAMX [7]): 0 | ABUTH damage score, application pre-emergence (ABUTH [8]): 5 | ECHCG damage score, application pre-emergence (ECHCG [9]): 1 | AMARE damage score, application pre-emergence (AMARE [10]): 2 | SETFA damage score, application pre-emergence (SETFA [11]): 2 | ALOMY damage score, application pre-emergence (ALOMY [12]): 1

C#CCOC1C(O)N(c2cc(C(F)(F)F)ccn2)C(=O)N1C (stereo not drawn) [Compound A44]
Post-emergence herbicidal activity ZEAMX (damage score 0-5) (ZEAMX [1]): 4 | Post-emergence herbicidal activity ABUTH (damage score 0-5) (ABUTH [2]): 5 | Post-emergence herbicidal activity ECHCG (damage score 0-5) (ECHCG [3]): 5 | Post-emergence herbicidal activity AMARE (damage score 0-5) (AMARE [4]): 5 | Post-emergence herbicidal activity SETFA (damage score 0-5) (SETFA [5]): 5 | Post-emergence herbicidal activity ALOMY (damage score 0-5) (ALOMY [6]): 4 | ZEAMX damage score, application pre-emergence (ZEAMX [7]): 2 | ABUTH damage score, application pre-emergence (ABUTH [8]): 5 | ECHCG damage score, application pre-emergence (ECHCG [9]): 5 | AMARE damage score, application pre-emergence (AMARE [10]): 5 | SETFA damage score, application pre-emergence (SETFA [11]): 4 | ALOMY damage score, application pre-emergence (ALOMY [12]): 4

COCCOC1C(O)N(c2cc(C(F)(F)F)ccn2)C(=O)N1C (stereo not drawn) [Compound A45]
Post-emergence herbicidal activity ZEAMX (damage score 0-5) (ZEAMX [1]): 1 | Post-emergence herbicidal activity ABUTH (damage score 0-5) (ABUTH [2]): 5 | Post-emergence herbicidal activity ECHCG (damage score 0-5) (ECHCG [3]): 3 | Post-emergence herbicidal activity AMARE (damage score 0-5) (AMARE [4]): 5 | Post-emergence herbicidal activity SETFA (damage score 0-5) (SETFA [5]): 3 | Post-emergence herbicidal activity ALOMY (damage score 0-5) (ALOMY [6]): 2 | ZEAMX damage score, application pre-emergence (ZEAMX [7]): 1 | ABUTH damage score, application pre-emergence (ABUTH [8]): 5 | ECHCG damage score, application pre-emergence (ECHCG [9]): 3 | AMARE damage score, application pre-emergence (AMARE [10]): 5 | SETFA damage score, application pre-emergence (SETFA [11]): 3 | ALOMY damage score, application pre-emergence (ALOMY [12]): 2

O=C1N(c2cc(C(F)(F)F)ccn2)C(O)[C@@H]2CCCN12 (stereo partly drawn) [Compound A46]
Post-emergence herbicidal activity ZEAMX (damage score 0-5) (ZEAMX [1]): 3 | Post-emergence herbicidal activity ABUTH (damage score 0-5) (ABUTH [2]): 5 | Post-emergence herbicidal activity ECHCG (damage score 0-5) (ECHCG [3]): 5 | Post-emergence herbicidal activity AMARE (damage score 0-5) (AMARE [4]): 5 | Post-emergence herbicidal activity SETFA (damage score 0-5) (SETFA [5]): 5 | Post-emergence herbicidal activity ALOMY (damage score 0-5) (ALOMY [6]): 5 | ZEAMX damage score, application pre-emergence (ZEAMX [7]): 3 | ABUTH damage score, application pre-emergence (ABUTH [8]): 5 | ECHCG damage score, application pre-emergence (ECHCG [9]): 4 | AMARE damage score, application pre-emergence (AMARE [10]): 5 | SETFA damage score, application pre-emergence (SETFA [11]): 2 | ALOMY damage score, application pre-emergence (ALOMY [12]): 4

O=C1N(c2cc(C(F)(F)F)ccn2)C(O)[C@H]2CCCN12 (stereo partly drawn) [Compound A47]
Post-emergence herbicidal activity ZEAMX (damage score 0-5) (ZEAMX [1]): 4 | Post-emergence herbicidal activity ABUTH (damage score 0-5) (ABUTH [2]): 5 | Post-emergence herbicidal activity ECHCG (damage score 0-5) (ECHCG [3]): 5 | Post-emergence herbicidal activity AMARE (damage score 0-5) (AMARE [4]): 5 | Post-emergence herbicidal activity SETFA (damage score 0-5) (SETFA [5]): 5 | Post-emergence herbicidal activity ALOMY (damage score 0-5) (ALOMY [6]): 5 | ZEAMX damage score, application pre-emergence (ZEAMX [7]): 2 | ABUTH damage score, application pre-emergence (ABUTH [8]): 5 | ECHCG damage score, application pre-emergence (ECHCG [9]): 5 | AMARE damage score, application pre-emergence (AMARE [10]): 5 | SETFA damage score, application pre-emergence (SETFA [11]): 4 | ALOMY damage score, application pre-emergence (ALOMY [12]): 4

CC(C)OC1C(O)N(c2cc(C(F)(F)F)ccn2)C(=O)N1C (stereo not drawn) [Compound A48]
Post-emergence herbicidal activity ZEAMX (damage score 0-5) (ZEAMX [1]): 1 | Post-emergence herbicidal activity ABUTH (damage score 0-5) (ABUTH [2]): 5 | Post-emergence herbicidal activity ECHCG (damage score 0-5) (ECHCG [3]): 4 | Post-emergence herbicidal activity AMARE (damage score 0-5) (AMARE [4]): 5 | Post-emergence herbicidal activity SETFA (damage score 0-5) (SETFA [5]): 4 | Post-emergence herbicidal activity ALOMY (damage score 0-5) (ALOMY [6]): 4 | ZEAMX damage score, application pre-emergence (ZEAMX [7]): 1 | ABUTH damage score, application pre-emergence (ABUTH [8]): 5 | ECHCG damage score, application pre-emergence (ECHCG [9]): 1 | AMARE damage score, application pre-emergence (AMARE [10]): 5 | SETFA damage score, application pre-emergence (SETFA [11]): 3 | ALOMY damage score, application pre-emergence (ALOMY [12]): 4
